Source: patent US20230002774A1, “METHODS AND COMPOSTIONS FOR INHIBITING CORONAVIRAL REPLICATION” (California Institute of Technology, priority 2021, published 2023)
Read-outs that look alike come from different tables or passages of the source.

Columns and labels:
[1] = system: H1299 cells; conditions: cell viability at 72 hpi, normalized to mock-infected DMSO-treated control
Experimental: (§3) Cells were seeded using 2×10^5 cells per well in 96-well plates and incubated overnight at 37° C. Cells were treated with the indicated concentration of CB-5083 and infected with virus or mock infected. After 1 h of infection, cells were washed three times with serum-free media and then cultured with media containing 10% FBS and the same concentration of CB-5083. Cultured media was replaced with fresh media at 8 hpi. At 72 hpi, cell viability was measured by CellTiter-Glo® Luminescent Cell Viability Assay (Promega).

[2] = system: HCoV-OC43; assay: Stage-limited inhibition assay, viral RNA at 8 hpi, HCoV-OC43 in H1299 cells; format: cell-based; conditions: for viral RNA levels vs vehicle control, inhibitors throughout the experiment (group 2): 1 mM CB-5083 or 2 mM NMS-873, 30 min before infection to 8 hpi, harvested 8 hpi; for viral RNA levels, early treatment (group 3: pretreatment to 0 hpi): 1 mM CB-5083 or 2 mM NMS-873, harvested 8 hpi
Experimental: (§1) Total cell RNA was extracted using the MagMAX mirVana Total RNA Isolation Kit (Thermo Fisher Scientific) with KingFisher systems (Thermo Fisher Scientific). RNA was quantified using NanoDrop Lite Spectrophotometer (Thermo Fisher Scientific). Total RNA ([…]) was reverse transcribed using the High-Capacity cDNA Reverse Transcription Kit (Thermo Fisher Scientific). cDNA samples were used for quantitative TagMan PCR using TaqMan™ Universal Master Mix II, no UNG (Thermo Fisher Scientific), in an QuantStudio™ 5 System (Thermo Fisher Scientific). FAM-MGB-labeled TaqMan probes for the indicated genes were purchased from Thermo Fisher Scientific. The resulting data were analyzed using Excel and GraphPad Prism 8.
(§2) H1299 cells were treated with 0.1% DMSO, […] CB-5083, or […] of NMS-873 from 30 min prior to virus infection until 8 h post-infection. […] Cells were collected at 8 hpi for viral RNA determination.

[3] = system: HCoV-OC43; format: cell-based; set-up: HCoV-OC43 viral RNA level reduced: dose or concentration left out as unconfirmed; conditions: CB-5083 until 8 hpi, harvested 24 hpi
[4] = system: HCoV-OC43; conditions: HCoV-OC43, CB-5083 0.5 mM, 8 hpi
Experimental: Cells were fixed with cold 4% paraformaldehyde for 15 min followed by permeabilization/blocking with 10% FBS and 0.2% Triton X-100 for another 1 h. Cells were stained with mouse anti-dsRNA antibody clone rJ2 (1:50) (Sigma-Aldrich, MABE1134) followed by labeling with anti-mouse mouse secondary antibody conjugated to Alexa-488 (Thermo Fisher Scientific). Nuclei were stained with Hoechst. Fluorescent images were acquired using Thermo Scientific™ Invitrogen™ EVOS™ FL Auto 2 Imaging System.
Cells were treated with the indicated concentration of CB-5083 and infected with virus. After 1 h of infection, cells were washed three times with serum-free media and then returned to media containing 2% FBS and the same concentration of CB-5083.

[5] = system: HCoV-229E; assay: Stage-limited inhibition assay, viral RNA at 8 hpi, HCoV-229E in H1299 cells; format: cell-based; set-up: dose or concentration left out as unconfirmed
Experimental: as §1, §2

[6] = system: HCoV-229E; assay: Titer of secreted virus in culture media by TCID50 in H1299 cells, HCoV-229E; format: cell-based
[7] = system: HCoV-OC43; assay: Titer of secreted virus in culture media by TCID50 in H1299 cells, HCoV-OC43; format: cell-based
[8] = system: HCoV-infected H1299 cells; conditions: CB-5083 0.5 mM until 8 hpi, viability at 72 hpi
Experimental: as §3

[9] = system: HCoV-229E; format: cell-based
[10] = system: HCoV-229E

SMILES	toxicity of the tested concentrations to H1299 cells [1]	viral RNA levels vs vehicle control, inhibitors throughout the experiment (group 2) [2]	viral RNA levels, early treatment (group 3: pretreatment to 0 hpi) [2]	HCoV-OC43 viral RNA level reduced [3]	HCoV-OC43 viral RNA level, effect of different doses [3]	dsRNA signals (immunostaining) [4]	viral RNA levels vs vehicle control, inhibitors throughout the experiment (group 2) [5]	viral RNA levels, early treatment (group 3: pretreatment to 0 hpi) [5]	viral titer of secreted HCoV-229E decreased [6]	viral titer of secreted HCoV-OC43 decreased [7]	cell viability increased compared to HCoV-infected and DMSO-treated control [8]	HCoV-229E viral RNA level reduced [9]	HCoV-229E viral RNA level, effect of different doses [9]	dsRNA signals (immunostaining) [10]	viral RNA levels vs vehicle control, inhibitors throughout the experiment (group 2) ([5]; HCoV-229E, 30 min before infection to 8 hpi, harvested 8 hpi)	viral RNA levels, early treatment (group 3: pretreatment to 0 hpi) ([5]; HCoV-229E, harvested 8 hpi)
Cc1cc2c(C(N)=O)cccc2n1-c1nc2c(c(NCc3ccccc3)n1)COCC2 [CB-5083]	non-toxic	Extensive reduction	only minor or no effects	about 40%	reduced by CB-5083 in a dose-dependent manner	lower dsRNA signals	Extensive reduction	only minor or no effects	~81%	~85%	~29%	about 47%	reduced by CB-5083 in a dose-dependent manner	lower dsRNA signals	–	–
Cc1cc(OCc2nnc(SC3CCCC3)n2-c2cccnc2)ccc1-c1ccc(S(C)(=O)=O)cc1 [NMS-873, 3-[3-cyclopentylsulfanyl-5-[[3-methyl-4-(4-methylsulfonylphenyl)phenoxy]methyl]-1,2,4-triazol-4-yl]pyridine]	–	Extensive reduction	only minor or no effects	–	–	–	–	–	–	–	–	–	–	–	Extensive reduction	only minor or no effects
